Results as given in patent US10456343B2, “Microemulsion compositions comprising polydatin and method of use” (L'OREAL, priority 2017, dated 2019).

Experiment: Solubility of polydatin in the microemulsion compositions
Type: physicochemical
Conditions: solubilized in microemulsion
Source text: The inventors of the instant disclosure discovered that the incorporation of polydatin into the microemulsion compositions disclosed herein results in a variety of surprising and unexpected results. […] A higher amount of solubilized polydatin is particularly beneficial in cosmetic compositions for application to the skin because it allows for increased transdermal delivery. The inventors also unexpectedly discovered that polydatin acts as a “clarifying agent,” i.e., it improves or enhances the transparency (clarity) of microemulsion compositions. […] Both formulations include baicalin. […] Thus, in addition to polydatin, the microemulsion composition of the instant disclosure are effective for incorporating baicalin into cosmetic and/or pharmaceutical compositions.

solubility of polydatin in the microemulsion compositions: up to 1.5%
Structure (SMILES): OC[C@H]1O[C@@H](Oc2cc(O)cc(/C=C/c3ccc(O)cc3)c2)[C@H](O)[C@@H](O)[C@@H]1O [polydatin, 3,4′,5-trihydroxystibene-3-β-mono-D glucoside]
